Patent US20080063628A1, “METHODS TO PROMOTE CELL DIFFERENTIATION” (priority 2006, published 2008)

Tested on: early passage (P5) pancreatic-derived stromal cell line
Assay: Single trichostatin A dose, 144 h follow-up, gene expression by RT-PCR (Example 6)
Format: cell-based, human
Conditions: 1.25 μM once at 0 h
Procedure: Several cell lines obtained from different amniotic fluid specimens (see Example 14) and pancreas donors (see Example 13) were tested with similar results. Two lines at similar passage number but derived from different amniotic fluid specimens are shown in Table VI-A and Table VI-B for this example. One of these cell lines was also used in examples 2 and 4 above. In addition, this example also contains comparison data in Table VI-C and Table VI-D for a single pancreatic-derived stromal line grown to early and late passage number.
Amniotic fluid derived cells or pancreatic-derived stromal cells were seeded into 24-well tissue culture plates at a density of 5000/cm^2 and cultured in AMNIOMAX (Invitrogen) or DMEM with 10% FBS, respectively, under standard cell culture conditions until confluent. After the cells reached confluency, amniotic fluid derived cells were treated once at time 0 hours with 500 nM trichostatin A. Pancreas-derived stromal cells were treated once at time 0 hours with 1.25 μM trichostatin A. Samples for RT-PCR were taken daily from zero to six days at the times indicated in Table VI.
RNA samples were obtained from the treated cultures up to 144 hours after the initial addition of trichostatin A or DMSO. Culture media was removed, the cells were washed with PBS, and RLT lysis buffer containing β-mercaptoethanol (Qiagen) was added. During culture, the medium was not changed nor was freshly prepared trichostatin A added. RNA was purified using the RNeasy Mini Kit (Qiagen), and RNA quantity and quality was determined using a spectrophotometer. cDNA was made using the iScript cDNA synthesis kit (BioRad).
Samples of 20 ng cDNA were used in each reaction to determine the expression levels of the following genes in amniotic fluid-derived cells: Gata1, HNF-3 beta, Pdx-1, insulin, and Sox17. Similarly, samples of 20 ng cDNA were used in each reaction to determine the expression level of the following genes in pancreatic-derived stromal cells: glucagon, HNF-3 beta, insulin and Pdx-1. Real-Time PCR was performed on the Applied Biosystems 7500, and data was analyzed using the accompanying software according to the methods described in Example 15.
Real-time PCR amplifcation and quantitative analysis. Unless otherwise stated, all reagents were purchased from Applied Biosystems. Real-time PCR reactions were performed using the ABI PRISM™ 7500 Sequence Detection System. TAQMAN™ FAST UNIVERSAL PCR MASTER MIX™ (ABI, CA) was used with 20 ng of reverse transcribed RNA in a total reaction volume of 20 μl. Each cDNA sample was run in duplicate to allow correction of pipetting errors. Primers and FAM-labeled TAQMAN™ probes were used at concentrations of 200 nM. The level of expression for each target gene was normalized using the pre-developed Applied Biosystem's human glyceraldehyde-3-phosphate dehydrogenase (GAPDH) endogenous control kit. Primers and probes were designed using either ABI PRISM PRIMER EXPRESS™ software or a pre-developed ABI gene analysis kit. For each gene, either one of the primers or the probe were designed to be exon-boundary spanning. This eliminated the possibility of the primers/probe binding to any genomic DNA present. The primer and probe sets are listed as follows: Pdx-1 (Hs00426216), Insulin (Hs00355773), glucagon (Hs00174967), and FoxA2 (HNF 3-beta) (Hs00232764). The remaining primers were designed using the PRIMERS program (ABI, CA). After an initial 95° C. incubation for 20 sec, samples were cycled 40 times in two stages: a denaturation step at 95° C. for 3 sec, followed by an annealing/extension step at 60° C. for 30 sec.
For each primer/probe set, a cycle time value was determined as the cycle number at which the fluorescence intensity of the PCR reaction reached a specific value in the middle of the exponential region of amplification. An increase in expression of a gene corresponded to a decrease in the number of cycles required for the fluorescence intensity to reach this value.

Which results are given for CC(/C=C/C(=O)NO)=C\[C@@H](C)C(=O)c1ccc(N(C)C)cc1 [trichostatin A]?
HNF (HNF-3 beta) gene expression (24 hrs): +++ (detectable at less than 35 cycles by RT-PCR with SE less than 0.9); Insulin gene expression (24 hrs): nd (not detectable at >40 cycles by RT-PCR); Pdx-1 gene expression (24 hrs): +++ (detectable at less than 35 cycles by RT-PCR with SE less than 0.9); glucagon gene expression (24 hrs): +++ (detectable at less than 35 cycles by RT-PCR with SE less than 0.9); HNF (HNF-3 beta) gene expression (48 hrs): nd (not detectable at >40 cycles by RT-PCR); Insulin gene expression (48 hrs): nd (not detectable at >40 cycles by RT-PCR); Pdx-1 gene expression (48 hrs): nd (not detectable at >40 cycles by RT-PCR); glucagon gene expression (48 hrs): + (detectable between 35 and 40 cycles by RT-PCR); HNF (HNF-3 beta) gene expression (72 hrs): nd (not detectable at >40 cycles by RT-PCR); Insulin gene expression (72 hrs): nd (not detectable at >40 cycles by RT-PCR); Pdx-1 gene expression (72 hrs): nd (not detectable at >40 cycles by RT-PCR); glucagon gene expression (72 hrs): + (detectable between 35 and 40 cycles by RT-PCR); HNF (HNF-3 beta) gene expression (96 hrs): nd (not detectable at >40 cycles by RT-PCR); Insulin gene expression (96 hrs): nd (not detectable at >40 cycles by RT-PCR); Pdx-1 gene expression (96 hrs): nd (not detectable at >40 cycles by RT-PCR); glucagon gene expression (96 hrs): +++ (detectable at less than 35 cycles by RT-PCR with SE less than 0.9); HNF (HNF-3 beta) gene expression (120 hrs): nd (not detectable at >40 cycles by RT-PCR); Insulin gene expression (120 hrs): nd (not detectable at >40 cycles by RT-PCR); Pdx-1 gene expression (120 hrs): nd (not detectable at >40 cycles by RT-PCR); glucagon gene expression (120 hrs): nd (not detectable at >40 cycles by RT-PCR); HNF (HNF-3 beta) gene expression (144 hrs): nd (not detectable at >40 cycles by RT-PCR); Insulin gene expression (144 hrs): nd (not detectable at >40 cycles by RT-PCR); Pdx-1 gene expression (144 hrs): nd (not detectable at >40 cycles by RT-PCR); glucagon gene expression (144 hrs): nd (not detectable at >40 cycles by RT-PCR)
